IC50 data for 27 compounds are collected here from patent publication US10323000B2, “Indole derivatives and their use in neurodegenerative diseases” (priority 2014, dated 2019).

Structures are written as SMILES. Like-named read-outs stand apart in the source and are kept apart here.

The target of test [1] is human P2X7 receptor (Homo sapiens (Human), UniProt Q99572). Description: Pore permeation assay (YO PRO dye uptake). It counts as cell-based. Here is the method: Agonist-induced pore formation was determined by measuring cellular uptake of YO PRO fluorescence dye in HEK293 transfected with human P2X7 receptor. A HEK293 cell over expressing human P2X7 was harvested using HQTase reagent to detach the cells from T75 cm flask. The harvested cells are centrifuged @1200 rpm for 5 min at room temperature. The viability of cells was determined by Trypan blue dye and the cells are plated @10,000 cell/well in 50 ul volume in a 384W BD Poly lysine coated plate and incubated overnight at 37 C. […] The plate was centrifuged at 1000 rpm for 5 seconds and incubated at room temperature for 30 minutes. The uptake of YO PRO dye into the cells was measured using Envision Fluorescence plate reader instrument (Perkin Elmer).
Sequence of human P2X7 receptor (Q99572 whole entry): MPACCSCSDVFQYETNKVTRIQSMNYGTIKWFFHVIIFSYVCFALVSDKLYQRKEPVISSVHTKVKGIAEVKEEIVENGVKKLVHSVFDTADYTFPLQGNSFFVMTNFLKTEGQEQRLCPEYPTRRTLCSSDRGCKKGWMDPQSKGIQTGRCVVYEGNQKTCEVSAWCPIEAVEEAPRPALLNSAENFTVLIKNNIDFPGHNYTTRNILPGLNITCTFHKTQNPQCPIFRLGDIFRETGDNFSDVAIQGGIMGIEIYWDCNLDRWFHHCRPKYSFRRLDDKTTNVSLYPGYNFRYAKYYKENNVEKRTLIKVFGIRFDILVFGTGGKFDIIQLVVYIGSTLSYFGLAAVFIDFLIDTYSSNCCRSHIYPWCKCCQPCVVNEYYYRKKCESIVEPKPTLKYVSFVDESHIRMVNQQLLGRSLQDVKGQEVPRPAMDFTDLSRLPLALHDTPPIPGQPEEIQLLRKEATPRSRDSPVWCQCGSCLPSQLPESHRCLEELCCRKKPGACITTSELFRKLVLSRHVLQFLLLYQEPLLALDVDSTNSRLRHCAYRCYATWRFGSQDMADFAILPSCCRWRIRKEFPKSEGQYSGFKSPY

Test [2] concerns the target P2X7 (IL-1β release from THP-1 cells) (Homo sapiens (Human), UniProt Q99572). As to the kind of experiment: IL-1β release assay. The test is classed as cell-based. Here is the method: IL-1β release assay: The activation of P2X7 by ATP leads to a fast transient activation of cells resulting in influx of Ca^2+ followed by conversion of pro-IL-1β to active IL-1β. The functional activity of P2X7 compounds was measured by the release of mature […] in the culture medium of THP-1 cells, detected by sandwich ELISA. […] THP-1 cells were harvested from the flask in 50 ml by centrifugation for 3 min at 100 g. The cells were resuspended to 2×10^5 cells/ml in medium supplemented with 0.5 μM PMA and incubated. The cells were washed and resuspended to 1.5×10^5 cells/ml in medium complemented with 10 ng/ml LPS, and the cells were primed for 4 h at 37° C., 5% CO2. After addition of 20 μL of prediluted test compounds, blank, standard and control reagents, cells were incubated for a further 20 min at 37° C. and stimulated with 0.8 mM BzATP for 30 minutes. The cells were centrifuged, supernatant was collected and the presence of mature IL-1β was detected using Dual human IL-1b kit following manufacturer's instruction. The tetrahydrobenzodiazepine analogs effectively modulated the activity of P2X7 in the cells as measured by the levels of pro-inflammatory cytokine IL-1β, which is released by the activation of P2X7 receptor.

[3] abbreviates: THP-1 cells, LPS primed, 0.8 mM BzATP, mature IL-1β by sandwich ELISA, read-out: hTHP-1/IL-ib IC50.
Setting [4] is: HEK293 transfected with human P2X7, BzATP 10 uM, YO PRO dye uptake, read-out: hP2X7 IC50.

Sequence of P2X7 (IL-1β release from THP-1 cells) (Q99572 whole entry): as above

For the compound `O=C(NCC1(O)CCCC(F)(F)C1)c1cn(CC2CCCN2)c2cccc(Cl)c12` (stereo not drawn) [Compound 155, 4-chloro-N-((3,3-difluoro-1-hydroxycyclohexyl)methyl)-1-(pyrrolidin-2-ylmethyl)-1H-indole-3-carboxamide], the values for the IC50 in test [1] and in test [2] (setting [3]) were 0.01 to 0.1 µM and below 0.01 µM, respectively.
As for `O=C(NCC1(O)CCCCCC1)c1cn(C2COC2)c2cccc(Cl)c12` [Compound 65, 4-Chloro-1-oxetan-3-yl-1H-indole-3-carboxylic acid (1-hydroxy-cycloheptylmethyl)-amide], the IC50 in test [1] was in the range of 0.01 to 0.1 µM; in test [2] it was 0.101 to 0.5 µM.
The like results for `O=C(NCC1CCCCC1)c1cn(C2CCOC2)c2cccc(Cl)c12` (stereo not drawn) [Compound 101, 4-chloro-N-(cyclohexylmethyl)-1-(tetrahydrofuran-3-yl)-1H-indole-3-carboxamide] were, in that order, 0.101 to 0.5 µM and 0.5 to 0.999 µM.
The like results for `O=C(NCC1(O)CCC(F)(F)CC1)c1cn(CC2CCO2)c2cccc(Cl)c12` (stereo not drawn) [Compound 115, 4-chloro-N-((4,4-difluoro-1-hydroxycyclohexyl)methyl)-1-(oxetan-2-ylmethyl)-1H-indole-3-carboxamide] were, in that order, 0.101 to 0.5 µM and 0.101 to 0.5 µM.
Turning to `O=C(NCC1CCC(F)(F)CC1)c1cn(CC(=O)N2CCOCC2)c2cccc(Cl)c12` [Compound 190, 4-Chloro-1-(2-morpholin-4-yl-2-oxo-ethyl)-1H-indole-3-carboxylic acid (4,4-difluoro-cyclohexylmethyl)-amide], the IC50 in test [1] (setting [4]) and in test [2] (setting [3]) was 0.101 to 0.5 µM in each case.
`COCCn1cc(C(=O)NC[C@]2(O)CCCC(F)(F)C2)c2c(Cl)cccc21` [Compound 20, (S)-4-chloro-N-((3,3-difluoro-1-hydroxycyclohexyl)methyl)-1-(2-methoxyethyl)-1H-indole-3-carboxamide]: the results for the IC50 in test [1] and in test [2] were 0.01 to 0.1 µM and 0.101 to 0.5 µM, respectively.
The like results for `O=C(NCC1CCC(F)(F)CC1)c1cn(CCN2CCCC2=O)c2cccc(Cl)c12` [Compound 189, 4-chloro-N-((4,4-difluorocyclohexyl)methyl)-1-(2-(2-oxopyrrolidin-1-yl)ethyl)-1H-indole-3-carboxamide] were, in that order, 0.01 to 0.1 µM and 0.101 to 0.5 µM.
The like results for `NCCn1cc(C(=O)NCC2CCC(F)(F)CC2)c2c(Cl)cccc21` [Compound 6, 1-(2-aminoethyl)-4-chloro-N-((4,4-difluorocyclo-hexyl)methyl)-1H-indole-3-carboxamide] were, in that order, 0.101 to 0.5 µM and 0.01 to 0.1 µM.
The like results for `CN1CC(n2cc(C(=O)NCC3(O)CCC(F)(F)CC3)c3c(Cl)cccc32)C1` [Compound 118, 4-chloro-N-((4,4-difluoro-1-hydroxycyclohexyl)methyl)-1-(1-methylazetidin-3-yl)-1H-indole-3-carboxamide] were, in that order, 0.5 to 0.999 µM and 0.01 to 0.1 µM.
`O=C(NCC1CCC(F)(F)CC1)c1cn(CC2CCNC2)c2cccc(Cl)c12` (stereo not drawn) [Compound 160]: the IC50 in test [1] and in test [2] was 0.101 to 0.5 µM each time.
For `C[C@H]1CCC[C@@](O)(CNC(=O)c2cn(CCC(F)F)c3cccc(Cl)c23)C1` [Compound 7], the IC50 in test [1] (setting [4]) was below 0.01 µM; in test [2], 0.01 to 0.1 µM.
`O=C1CC[C@H](Cn2cc(C(=O)NCC3CCC(F)(F)CC3)c3c(Cl)cccc32)N1` [Compound 162, (R)-4-chloro-N-((4,4-difluorocyclohexyl)methyl)-1-((5-oxopyrrolidin-2-yl)methyl)-1H-indole-3-carboxamide]: the IC50 in test [1] and in test [2] was 0.01 to 0.1 µM in each case.
With `C[C@H]1CCC[C@@](O)(CNC(=O)c2cn(CC(F)(F)F)c3cccc(Cl)c23)C1` [Compound 2, 4-chloro-N-(((1S,3S)-1-hydroxy-3-methylcyclohexyl)methyl)-1-(2,2,2-trifluoroethyl)-1H-indole-3-carboxamide], the IC50 in test [1] and in test [2] was 0.01 to 0.1 µM throughout.
In the case of `O=C(NCC1(O)CCC(F)(F)CC1)c1cn(CCC(F)F)c2cccc(Cl)c12` [Compound 10, 4-Chloro-1-(3,3-difluoro-propyl)-1H-indole-3-carboxylic acid (4,4-difluoro-1-hydroxy-cyclohexylmethyl)-amide], the IC50 in test [1] was 0.01 to 0.1 µM; in test [2], 0.101 to 0.5 µM.
In the same order, the values of `O=C(NCC1CCC(F)(F)CC1)c1cn(C2CCOC2)c2cccc(Cl)c12` (stereo not drawn) [Compound 114, 4-chloro-N-((4,4-difluorocyclohexyl)methyl)-1-(tetrahydrofuran-3-yl)-1H-indole-3-carboxamide] are 0.01 to 0.1 µM and 0.101 to 0.5 µM.
Regarding `CC(=O)N1CC[C@H]1Cn1cc(C(=O)NCC2CCC(F)(F)CC2)c2c(Cl)cccc21` [Compound 181, (S)-1-((1-acetylazetidin-2-yl)methyl)-4-chloro-N-((4,4-difluorocyclohexyl)methyl)-1H-indole-3-carboxamide], the IC50 in test [1] (setting [4]) and in test [2] (setting [3]) was 0.101 to 0.5 µM throughout.
`O=C(NCC1CCC(F)(F)CC1)c1cn(CCC(F)(F)F)c2cccc(Cl)c12` [Compound 13, 4-chloro-N-((4,4-difluorocyclohexyl)methyl)-1-(3,3,3-trifluoropropyl)-1H-indole-3-carboxamide]: the IC50 in test [1] and in test [2] was 0.01 to 0.1 µM in each case.
For `O=C(NCC1CCC(F)(F)CC1)c1cn(C[C@H]2CCCO2)c2cccc(Cl)c12` [Compound 135, (R)-4-chloro-N-((4,4-difluorocyclohexyl)methyl)-1-((tetrahydrofuran-2-yl)methyl)-1H-indole-3-carboxamide], the IC50 in test [1] and in test [2] was 0.01 to 0.1 µM in each case.
As to `O=C(NC[C@@H]1CCCC[C@H]1O)c1cn(C2COC2)c2cccc(Cl)c12` [Compound 87], the IC50 was 0.101 to 0.5 µM in test [1] and above 1 µM in test [2] (setting [3]).
For the compound `O=C(NCC1CCC(F)(F)CC1)c1cn(CCN2CCCCC2)c2cccc(Cl)c12` [Compound 193, 4-chloro-N-((4,4-difluorocyclohexyl)methyl)-1-(2-(piperidin-1-yl)ethyl)-1H-indole-3-carboxamide], the IC50 in test [1] and in test [2] was 0.01 to 0.1 µM throughout.
Regarding `O=C(NCC1CCC(F)(F)CC1)c1cn(CC2CC(F)(F)C2)c2cccc(Cl)c12` [Compound 127, 4-chloro-1-((3,3-difluorocyclobutyl)methyl)-N-((4,4-difluorocyclohexyl)methyl)-1H-indole-3-carboxamide], the IC50 in test [1] is 0.01 to 0.1 µM; in test [2], 0.5 to 0.999 µM.
Take `O=C(NCC1CCC(F)(F)CC1)c1cn(CC(=O)N2CCCC2)c2cccc(Cl)c12` [Compound 185, 4-Chloro-1-(2-oxo-2-pyrrolidin-1-yl-ethyl)-1H-indole-3-carboxylic acid (4,4-difluoro-cyclohexylmethyl)-amide]: the IC50 in test [1] and in test [2] was 0.01 to 0.1 µM in each case.
For `O=C(NCC[C@@H]1C[C@@H]2C=C[C@H]1C2)c1cn(C2COC2)c2cccc(Cl)c12` [Compound 75, 4-Chloro-1-oxetan-3-yl-1H-indole-3-carboxylic acid ((1S,2S,4S)-2-bicyclo[2.2.1]hept-5-en-2-yl-ethyl)-amide], the results for the IC50 in test [1] (setting [4]) and in test [2] were below 0.01 µM and 0.01 to 0.1 µM, respectively.
Take `CC1CC(F)(F)CC(O)(CNC(=O)c2cn(CC3CCCO3)c3cccc(Cl)c23)C1` (stereo not drawn) [Compound 138, 4-chloro-N-((3,3-difluoro-1-hydroxy-5-methylcyclohexyl)methyl)-1-((tetrahydrofuran-2-yl)methyl)-1H-indole-3-carboxamide]: the IC50 in test [1] and in test [2] was 0.101 to 0.5 µM in each case.
As to `CC(C)N(C)C(=O)Cn1cc(C(=O)NCC2CCC(F)(F)CC2)c2c(Cl)cccc21` [Compound 203, 4-Chloro-1-[(isopropyl-methyl-carbamoyl)-methyl]-1H-indole-3-carboxylic acid (4,4-difluoro-cyclohexylmethyl)-amide], the values for the IC50 in test [1] and in test [2] were 0.01 to 0.1 µM and 0.101 to 0.5 µM, respectively.
Regarding `O=C(NCC1(O)CCC(F)(F)CC1)c1cn(CC2CCOC2)c2cccc(Cl)c12` (stereo not drawn) [Compound 147, 4-chloro-N-((4,4-difluoro-1-hydroxycyclohexyl)methyl)-1-((tetrahydrofuran-3-yl)methyl)-1H-indole-3-carboxamide], the IC50 in test [1] and in test [2] was 0.01 to 0.1 µM in each case.
As to `O=C(NCC1CCC(F)(F)CC1)c1cn(CC2(O)CC2)c2cccc(Cl)c12` [Compound 117, 4-chloro-N-((4,4-difluorocyclohexyl)methyl)-1-((1-hydroxycyclopropyl)methyl)-1H-indole-3-carboxamide], the IC50 in test [1] fell in the range of 0.01 to 0.1 µM; in test [2], 0.101 to 0.5 µM.
